{"source": "patent US9302967B2", "about": "“Substituted cathechols as inhibitors of IL-4 and IL-5 for the treatment of bronchial asthma” (Council of Scientific & Industrial Research, priority 2011, dated 2016)", "key": {"[1]": {"parameters": "species or system mice", "details": "mouse, in vivo", "method": "14 d acute oral toxicity of compound 1 of formula I was performed. Three doses were selected: 47, 23, 12 and 0 mg/kg bw (Vehicle control) of compound 1 of formula I was administered by single oral gavage using blunt ended steel canula.\nBefore sacrifice, blood was drawn from the retro-orbital sinus of mice and rats with the help of non-heparinised capillary tubes and hematological parameters were assessed with the help of Automatic Hematology Analyzer (Medonic)."}, "[2]": {"details": "mouse, in vivo", "method": "(§1) Earlier, LD50 of ICB 14 C6 was derived from in vitro cytotoxicity assay by NRUmethod in 3T3 cells. […] For 90d sub-chronic toxicity study the highest dose selected was one-fourth of the limit dose. Four different doses of ICB14 C6 (47, 23, 12 and 0 [vehicle] mg/kg body weight) were prepared in ground nut oil daily for 5 days a week for 90d.\n(§2) Blood samples were taken from the retro-orbital sinus on day 91 for hematological and clinical chemistry analyses. Clinical analysis included serum creatinine, serum gammaGT, serum uric acid, serum glucose, serum protein, serum bilirubin, serum GOT/AST and serum GPT/ALT. Hematology including white blood cell count was analyzed with the help of Automatic Hematology Analyzer (Medonic).\nThe blood left after the hematological studies were allowed to clot for 2 h and serum separated by centrifugation at 3000 rpm for 5 min and subsequently used for clinical biochemistry using kits from Spinreact S.A. (Girona, Spain). Procedural details given in the technical bulletin were followed for the measurement of different serum parameters."}, "NF-κB pathway": {"test_system": "NF-κB pathway", "details": "lipopolysaccharide (LPS)-induced macrophages; cited from earlier work"}, "[3]": {"details": "mouse, in vivo", "method": "as §1, §2\nBefore sacrifice, blood was drawn from the retro-orbital sinus of mice with the help of heparinised capillary tubes and hematological parameters were assessed with the help of Automatic Hematology Analyzer (Medonic CA535).", "remark": "listed apart in the source"}, "IL-4": {"test_system": "IL-4", "test": "IL-4 levels in lung homogenates by ELISA, OVA mouse model", "format": "in vivo, BALB/c mice", "details": "for IL-4 levels in lung: 10 mg/kg vs OVA/OVA/VEH", "method": "Mice were sensitized with 0.2 ml PBS containing 50 μg ovalbumin (OVA) (Sigma, USA) and 4 mg aluminum hydroxide in saline intraperitonially (i.p.) on days 0, 7 and 14 as shown in FIG. 1. Sham group mice were sensitized with only alum dissolved in PBS. From day 18 to 27, mice were exposed to aerosol of OVA (3%) inhalation 25 minutes daily in a Plexiglas chamber (20×20×10 cm^3). The aerosol was generated by a nebulizer (OMRON CX model) with an airflow rate of 9 L/minute. Sham group mice were challenged with PBS alone.\nCompound 1 of formula I was dissolved in 50% ethanol. So 50% ethanol was used as a vehicle. Group I was alum sensitized, saline challenged and treated with vehicle (SHAM/SAL/VEH), group II was OVA sensitized, OVA challenged and treated with 50% ethanol as vehicle (OVA/OVA/VEH), group III, IV, V, VI were OVA sensitized, OVA challenged and treated with 0.05, 0.1, 5 and 10 mg/kg compound 1 of formula I. Drug was given in the volume of 10 μl orally twice per day. Confirmatory experiments were done with two concentrations of compound 1 of formula I (5 and 10 mg/kg twice a day), and these findings were compared with parallel group of mice which were OVA-sensitized, -OVA challenged and treated orally once a day with 0.75 mg/kg Dexamethasone (OVA/OVA/DEX).\nOVA-specific IgE levels in sera were measured by enzyme linked immunosorbent assay (ELISA) as described previously with little modification (Inflam. Res. 2003, 52, 101-106). Absorbance values at 450 nm were converted to arbitrary values by multiplying with 100. IL-4 levels in lung homogenates were measured by ELISA method as per manufacturer's instructions (BD Pharmingen, USA). Lung homogenates were prepared by homogenizing the lung tissue (approximately 100 mg) with 1 ml PBS followed by centrifugation at 10000 g for 30 min at 4° C. Results were expressed in pg/50 μg protein. Protein estimation was done by BCA method."}}, "note": "Read-outs that look alike come from different tables or passages of the source.", "data": [{"smiles": "C=CCc1ccc(O)c(O)c1", "note": "[Compound 1, 4-allyl-benzene-1,2-diol]", "values": [{"measurement": "GRAN", "setting": "[1]; 12 mg/kg", "result": "9.82 ± 3.49", "unit": "%"}, {"measurement": "HCT", "setting": "[1]; 12 mg/kg", "result": "39.72 ± 5.27", "unit": "%"}, {"measurement": "HGB", "setting": "[1]; 12 mg/kg", "result": "12.6 ± 2.50", "unit": "g/dL"}, {"measurement": "LYMF", "setting": "[1]; 12 mg/kg", "result": "8.54 ± 14.39", "unit": "%"}, {"measurement": "MCV", "setting": "[1]; 12 mg/kg", "result": "41.76 ± 1.268", "unit": "μm^3"}, {"measurement": "MPV", "setting": "[1]; 12 mg/kg", "result": "6.96 ± 0.33", "unit": "μm^3"}, {"measurement": "PLT", "setting": "[1]; 12 mg/kg", "result": "588 ± 198 10^3/mm^3"}, {"measurement": "RBC", "setting": "[1]; 12 mg/kg", "result": "9.52 ± 1.313 ×10^6/mm^3"}, {"measurement": "WBC", "setting": "[1]; 12 mg/kg", "result": "9.1 ± 0.86 ×10^3/mm^3"}, {"measurement": "GRAN", "setting": "[1]; 23 mg/kg", "result": "10.8 ± 2.30", "unit": "%"}, {"measurement": "HCT", "setting": "[1]; 23 mg/kg", "result": "42.05 ± 7.86", "unit": "%"}, {"measurement": "HGB", "setting": "[1]; 23 mg/kg", "result": "13.22 ± 1.72", "unit": "g/dL"}, {"measurement": "LYMF", "setting": "[1]; 23 mg/kg", "result": "2.12 ± 3.45", "unit": "%"}, {"measurement": "MCV", "setting": "[1]; 23 mg/kg", "result": "41.675 ± 2.069", "unit": "μm^3"}, {"measurement": "MPV", "setting": "[1]; 23 mg/kg", "result": "6.95 ± 0.36", "unit": "μm^3"}, {"measurement": "PLT", "setting": "[1]; 23 mg/kg", "result": "518 ± 40 10^3/mm^3"}, {"measurement": "RBC", "setting": "[1]; 23 mg/kg", "result": "10.05 ± 1.477 ×10^6/mm^3"}, {"measurement": "WBC", "setting": "[1]; 23 mg/kg", "result": "13.52 ± 2.71 ×10^3/mm^3"}, {"measurement": "GRAN", "setting": "[1]; 47 mg/kg", "result": "9.46 ± 2.33", "unit": "%"}, {"measurement": "HCT", "setting": "[1]; 47 mg/kg", "result": "39.12 ± 1.76", "unit": "%"}, {"measurement": "HGB", "setting": "[1]; 47 mg/kg", "result": "13.2 ± 0.65", "unit": "g/dL"}, {"measurement": "LYMF", "setting": "[1]; 47 mg/kg", "result": "1.0 ± 0.87", "unit": "%"}, {"measurement": "MCV", "setting": "[1]; 47 mg/kg", "result": "40.45 ± 1.126", "unit": "μm^3"}, {"measurement": "MPV", "setting": "[1]; 47 mg/kg", "result": "7.1 ± 0.32", "unit": "μm^3"}, {"measurement": "PLT", "setting": "[1]; 47 mg/kg", "result": "476.5 ± 124^ 10^3/mm^3"}, {"measurement": "RBC", "setting": "[1]; 47 mg/kg", "result": "9.74 ± 0.749 ×10^6/mm^3"}, {"measurement": "WBC", "setting": "[1]; 47 mg/kg", "result": "11.02 ± 2.61 ×10^3/mm^3"}, {"measurement": "Activities of AST, ALT and gammaGT enzymes vs normal range", "setting": "[2]", "result": "within the normal range"}, {"measurement": "Bilirubin", "setting": "[2]; 12 mg/kg", "result": "0.91 ± 0.47", "unit": "mg/dL"}, {"measurement": "Creatinine", "setting": "[2]; 12 mg/kg", "result": "1.03 ± 0.48", "unit": "mg/dL"}, {"measurement": "GOT/AST", "setting": "[2]; 12 mg/kg", "result": "12.25 ± 2.18", "unit": "U/L"}, {"measurement": "GPT/ALT", "setting": "[2]; 12 mg/kg", "result": "8.56 ± 3.79", "unit": "U/L"}, {"measurement": "Glucose", "setting": "[2]; 12 mg/kg", "result": "79.89 ± 22.82", "unit": "mg/dL"}, {"measurement": "LDH", "setting": "[2]; 12 mg/kg", "result": "175.3 ± 18", "unit": "U/L"}, {"measurement": "Total protein", "setting": "[2]; 12 mg/kg", "result": "8.63 ± 1.81", "unit": "g/dL"}, {"measurement": "Uric acid", "setting": "[2]; 12 mg/kg", "result": "6.05 ± 3.9", "unit": "mg/dL"}, {"measurement": "gammaGT", "setting": "[2]; 12 mg/kg", "result": "12.73 ± 6.74", "unit": "U/L"}, {"measurement": "Bilirubin", "setting": "[2]; 23 mg/kg", "result": "0.37 ± 012", "unit": "mg/dL"}, {"measurement": "Creatinine", "setting": "[2]; 23 mg/kg", "result": "1.10 ± 0.65", "unit": "mg/dL"}, {"measurement": "GOT/AST", "setting": "[2]; 23 mg/kg", "result": "13.56 ± 6.88", "unit": "U/L"}, {"measurement": "GPT/ALT", "setting": "[2]; 23 mg/kg", "result": "12.84 ± 7.9", "unit": "U/L"}, {"measurement": "Glucose", "setting": "[2]; 23 mg/kg", "result": "61.66 ± 13.08", "unit": "mg/dL"}, {"measurement": "LDH", "setting": "[2]; 23 mg/kg", "result": "198.6 ± 27", "unit": "U/L"}, {"measurement": "Total protein", "setting": "[2]; 23 mg/kg", "result": "6.52 ± 2.61", "unit": "g/dL"}, {"measurement": "Uric acid", "setting": "[2]; 23 mg/kg", "result": "7.15 ± 0.62", "unit": "mg/dL"}, {"measurement": "gammaGT", "setting": "[2]; 23 mg/kg", "result": "15.29 ± 5.38", "unit": "U/L"}, {"measurement": "Bilirubin", "setting": "[2]; 47 mg/kg", "result": "0.54 ± 0.39", "unit": "mg/dL"}, {"measurement": "Creatinine", "setting": "[2]; 47 mg/kg", "result": "1.36 ± 0.56", "unit": "mg/dL"}, {"measurement": "GOT/AST", "setting": "[2]; 47 mg/kg", "result": "5.30 ± 1.55", "unit": "U/L"}, {"measurement": "GPT/ALT", "setting": "[2]; 47 mg/kg", "result": "5.71 ± 9.89", "unit": "U/L"}, {"measurement": "Glucose", "setting": "[2]; 47 mg/kg", "result": "86.42 ± 6.39", "unit": "mg/dL"}, {"measurement": "LDH", "setting": "[2]; 47 mg/kg", "result": "210.5 ± 25", "unit": "U/L"}, {"measurement": "Total protein", "setting": "[2]; 47 mg/kg", "result": "7.78 ± 1.37", "unit": "g/dL"}, {"measurement": "Uric acid", "setting": "[2]; 47 mg/kg", "result": "5.59 ± 1.26", "unit": "mg/dL"}, {"measurement": "gammaGT", "setting": "[2]; 47 mg/kg", "result": "15.66 ± 2.63", "unit": "U/L"}, {"measurement": "NF-κB pathway", "setting": "NF-κB pathway", "result": "inhibited NF-κB pathway"}, {"measurement": "Hemoglobin, RBC and WBC counts vs normal range", "setting": "[3]", "result": "within the normal range"}, {"measurement": "platelet counts vs normal range", "setting": "[3]", "result": "below the normal range"}, {"measurement": "HGB", "setting": "[3]; 12 mg/kg", "result": "13.76 ± 0.55", "unit": "g/dL"}, {"measurement": "PLT", "setting": "[3]; 12 mg/kg", "result": "272 ± 93 ×10^3/mm^3"}, {"measurement": "RBC", "setting": "[3]; 12 mg/kg", "result": "10.07 ± 0.67 ×10^6/mm^3"}, {"measurement": "WBC", "setting": "[3]; 12 mg/kg", "result": "8.66 ± 1.27 ×10^3/mm^3"}, {"measurement": "HGB", "setting": "[3]; 23 mg/kg", "result": "13.85 ± 0.35", "unit": "g/dL"}, {"measurement": "PLT", "setting": "[3]; 23 mg/kg", "result": "306 ± 106 ×10^3/mm^3"}, {"measurement": "RBC", "setting": "[3]; 23 mg/kg", "result": "9.82 ± 0.014 ×10^6/mm^3"}, {"measurement": "WBC", "setting": "[3]; 23 mg/kg", "result": "10.85 ± 2.11 ×10^3/mm^3"}, {"measurement": "HGB", "setting": "[3]; 47 mg/kg", "result": "12.13 ± 0.57", "unit": "g/dL"}, {"measurement": "PLT", "setting": "[3]; 47 mg/kg", "result": "319 ± 120 ×10^3/mm^3"}, {"measurement": "RBC", "setting": "[3]; 47 mg/kg", "result": "8.51 ± 0.323 ×10^6/mm^3"}, {"measurement": "WBC", "setting": "[3]; 47 mg/kg", "result": "10.16 ± 1.03 ×10^3/mm^3"}, {"measurement": "reduction of lung IL-4 compared to DEX treated mice", "setting": "IL-4; 10 mg/kg", "result": "approx. 65%"}, {"measurement": "IL-4 levels in lung", "setting": "IL-4", "result": "a decrease in the IL-4 levels"}, {"measurement": "IL-4 levels in lung", "setting": "IL-4; listed as compound of formula I", "result": "a significant reduction in the IL-4 levels"}]}]}
